Assay results reported in patent publication US6376753B1, “PURIFIED CYTOCHROME P450 POLYPEPTIDE CYP76B1 FROM HELIANTHUS TUBEROSUS AND ITS APPLICATIONS AS BIOCATALYST IN PARTICULAR FOR THE DEGRADATION OF ENVIRONMENTAL POLLUTANTS AND FOR ALTERING THE RESISTANCE OF PLANTS SENSITIVE TO PHENYLUREA FAMILY OF HERBICIDES” (priority 1997, dated 2002).

Tested on: tobacco transformed with CYP76B1
Test: Leaf pieces of tobacco transformed with CYP76B1 aged on herbicide medium
Format: cell-based
Details: 10 days on MS medium containing 0.5 μM linuron; versus empty plasmid
Procedure: FIG. 15 : Leaf pieces from tobacco transformed with CYP76B1 (left) or with an empty plasmid (right) were aged for 10 days on Murashige and Skoog (MS) medium containing 0.5 μM linuron.
The CYP76B1 cDNA was inserted in vector pBDX (Gachotte D., 1995). The resulting vector was mobilized into Agrobacterium tumefaciens strain LBA4404 by triparental mating (Ditta G. et al., 1980). Plant transformation was realized according to Horsch et al. (1985): tobacco leaf disks were soaked for 10 minutes in an Agrobacterium solution, blotted dry and placed on MS callus-inducing medium containing 500 μg/ml cefotaxime and 100 μg/ml kanamycin. After four to six weeks, shoots were transferred on MS-rooting medium containing 100 μg/ml cefotaxime and 100 μg/ml kanamycin. After rooting, plants were transferred in soil.

SMILES: CON(C)C(=O)Nc1ccc(Cl)c(Cl)c1 [linuron]
- chlorophyll destruction in leaf pieces: avoids chrorophyll destruction
